# Assay results published in ChEMBL document CHEMBL1201862, “PubChem BioAssay data set” (2004).
# Calls of active or inactive are those of the source.
# Experiments:
# Hexokinase-1 = Hexokinase-1 (Homo sapiens, UniProt P19367); assay: SAR analysis of small molecule inhibitors of hexokinase domain containing I (HKDC1) in the hexokinase 1 selectivity assay. [Related pubchem assays (depositor defined):AID493160, AID493190]; type: functional
# Hexokinase HKDC1 = biological target: T1, Hexokinase HKDC1 (Homo sapiens, UniProt Q2TB90); assay: SAR analysis of small molecule inhibitors of hexokinase domain containing I (HKDC1). [Related pubchem assays (depositor defined):AID493160, AID493190]; type: functional
# T1 sequence (Q2TB90 whole entry): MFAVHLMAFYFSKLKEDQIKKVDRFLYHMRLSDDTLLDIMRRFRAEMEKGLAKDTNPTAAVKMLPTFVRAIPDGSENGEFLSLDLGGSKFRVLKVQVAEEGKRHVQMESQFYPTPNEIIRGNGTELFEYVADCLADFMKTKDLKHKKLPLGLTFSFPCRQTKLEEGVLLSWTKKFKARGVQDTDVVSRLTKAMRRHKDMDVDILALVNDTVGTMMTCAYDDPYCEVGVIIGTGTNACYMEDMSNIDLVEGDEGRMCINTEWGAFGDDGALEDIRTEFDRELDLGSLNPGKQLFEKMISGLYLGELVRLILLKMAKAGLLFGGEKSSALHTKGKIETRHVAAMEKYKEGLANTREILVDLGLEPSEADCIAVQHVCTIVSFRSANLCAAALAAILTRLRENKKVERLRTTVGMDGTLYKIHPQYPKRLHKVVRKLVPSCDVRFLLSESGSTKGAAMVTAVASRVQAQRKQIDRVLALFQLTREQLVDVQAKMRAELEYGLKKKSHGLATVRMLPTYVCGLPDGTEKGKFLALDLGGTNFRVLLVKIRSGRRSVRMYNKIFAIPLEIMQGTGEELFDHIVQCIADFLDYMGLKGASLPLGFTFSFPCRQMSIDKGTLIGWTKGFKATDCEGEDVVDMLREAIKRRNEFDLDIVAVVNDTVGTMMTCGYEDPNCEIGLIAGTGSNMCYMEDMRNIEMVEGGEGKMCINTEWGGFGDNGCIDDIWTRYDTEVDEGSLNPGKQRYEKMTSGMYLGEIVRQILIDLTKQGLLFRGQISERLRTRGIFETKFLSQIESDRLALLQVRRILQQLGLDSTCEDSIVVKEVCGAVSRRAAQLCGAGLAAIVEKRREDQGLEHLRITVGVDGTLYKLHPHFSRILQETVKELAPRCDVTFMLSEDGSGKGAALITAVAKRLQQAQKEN
# [1] = NIH-3T3 fibroblast cytotoxicity, dose response, cytotoxicity control, cell-based, fluorescence, Alamar Blue, secondary assay (AID 2327); type: functional;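 also: NIH-3T3 mouse fibroblasts cultured with fluconazole at 8 µg/mL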
# [2] = fluconazole-exposed Candida albicans growth modulators – fluorescence, retest, confirmation (AID 2467); type: functional, cell-based
# [3] = biological target: Serine/threonine-protein phosphatase (Candida dubliniensis (strain CD36 / CBS 7987 / NCPF 3949 / NRRLY-17841) (Yeast), UniProt B9W6M3); assay: blockers of CaCl2-induced CDRE-lacZ signaling – S. cerevisiae, luminescence, secondary, dose response (AID 2388); type: functional, cell-based;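 also: yeast reporter cells carrying a calcineurin-responsive lacZ construct stimulated with calcium chloride; luminescent beta-galactosidase reporter signal in whole cells rather than isolated phosphatase activity; potency for inhibition where a drop in reporter signal means calcineurin blockade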
# [4] = biological target: ATP-dependent molecular chaperone HSP82 (Candida albicans (strain WO-1) (Yeast), UniProt C4YTQ8); assay: steroid-induced GRE reporter decrease in yeast – S. cerevisiae, luminescence, Hsp90 inhibitor project, dose response (AID 2400); type: functional, cell-based;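 also: beta-galactosidase luminescence from glucocorticoid response element reporter as proxy for Hsp90 function; inhibitor potency where signal loss means Hsp90 inhibition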
# Candida albicans [5] = assay: resistant Candida growth with fluconazole co-treatment – CaCi-8 strain, Alamar Blue, dry powder, set 3, dose response (AID 488905); type: functional, organism-based
# Candida albicans [6] = assay: Candida growth inhibition combined with fluconazole – CaCi-2 strain, Alamar Blue, dry powder, set 3, dose response (AID 488907); type: functional, organism-based
# [7] = biological target: Acyl-homoserine lactone acylase PvdQ (Pseudomonas aeruginosa (strain LESB58), UniProt Q9I194); assay: PvdQ acylase enzyme activity blockers – biochemical, fluorescence, plate reader and imaging, cherry-picks, dose response (AID 493231)
# HeLa = assay: toxicity to human HeLa cells – cell-based, 48 h, plate reader, cherry-picks, cytotoxicity control, dose response (AID 504942); type: functional
# [8] = viability of uninfected HEp-2 cells – cell-based, HTS, cytotoxicity control for RSV inhibitor project, dose response (AID 2410); type: functional; conditions: human respiratory syncytial virus
# HEK293 [9] = assay: EBV LMP1 TES2 canonical NF-kB signalling blockers – cell-based, HEK293, luciferase, cherry-pick, dose response (AID 588343); type: functional; conditions: Homo sapiens
# [10] = biological target: Latent membrane protein 1 (Human herpesvirus 4 (strain B95-8), UniProt P03230); assay: LMP1 TES1 pathway selectivity over dsRED control – imaging, HEK293T, dual-color eGFP/dsRED, cherry-picks, selectivity assay for LMP1 NF-kB inhibitor project, dose response (AID 588398); type: functional, cell-based
# [11] = biological target: T2, Voltage-gated inwardly rectifying potassium channel KCNH2 (Homo sapiens, UniProt Q12809); conditions: Potency;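 also: confirmatory quantitative high-throughput screen measuring inhibition of hERG channel activity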
# [12] = biological target: T3, Microphthalmia-associated transcription factor (Homo sapiens, UniProt O75030); assay: reducers of TRPM1 reporter luminescence, concentration series – cell-based, SK-MEL-5, cherry-picked, set 3, MITF inhibitor project, dose response (AID 493073); type: functional;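 also: SK-MEL-5 melanoma cells with luciferase driven by the MITF target TRPM1 promoter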
# T3 sequence (O75030 whole entry): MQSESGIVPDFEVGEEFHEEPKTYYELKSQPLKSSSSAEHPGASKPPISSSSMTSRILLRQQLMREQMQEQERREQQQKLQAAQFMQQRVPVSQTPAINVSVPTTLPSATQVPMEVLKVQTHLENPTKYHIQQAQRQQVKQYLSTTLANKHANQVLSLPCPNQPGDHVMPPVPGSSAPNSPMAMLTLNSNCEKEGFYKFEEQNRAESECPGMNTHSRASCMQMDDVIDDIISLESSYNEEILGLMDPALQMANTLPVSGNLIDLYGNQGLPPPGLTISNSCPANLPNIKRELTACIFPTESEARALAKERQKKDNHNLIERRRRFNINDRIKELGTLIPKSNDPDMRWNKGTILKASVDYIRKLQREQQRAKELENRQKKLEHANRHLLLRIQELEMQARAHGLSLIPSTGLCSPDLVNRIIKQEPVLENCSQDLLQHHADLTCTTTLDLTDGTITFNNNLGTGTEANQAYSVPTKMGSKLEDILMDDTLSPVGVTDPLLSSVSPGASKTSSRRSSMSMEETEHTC
# A-375 [13] = assay: MITF: Counter assay: A375 proliferation Measured in Cell-Based System Using Plate Reader - 2084-03_Inhibitor_Dose_DryPowder_Activity. [Related pubchem assays (depositor defined):AID488944]; type: functional; conditions: Homo sapiens
# A-375 [14] = assay: proliferation inhibition in MITF-low A375 cells – cell-based, cherry-pick samples, set 2, counter-screen for MITF modulator project, dose response (AID 540335); type: functional; conditions: Homo sapiens
# [15] = luciferase reporter signal suppression in cells – H4 neuroglioma cells, luminescence, dose response (AID 1990); type: functional, cell-based
# [16] = luciferase reporter signal reduction – luminescence, H4-C neuroglioblastoma cells, dose response (AID 2458); type: functional, cell-based;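 also: H4 neuroglioblastoma cells stably carrying a luciferase reporter gene fusion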
# [17] = biological target: T4, Luciferin 4-monooxygenase (Photinus pyralis, UniProt P08659); assay: Counter Screen for Luciferase-based Assay Positives. [Related pubchem assays: 620, 618, 411 ]
# HEK293 [18] = assay: PMA/Ionomycin induced NF-kB luciferase assay in 293- NF-kB-Luc stable cells. [Related pubchem assays: 1299, 1270, 1295, 1375, 1287, 1281, 1293, 1291, 1289, 1280, 465, 1364, 1282, 1372, 1365, 1370, 1367, 1366, 1269, 1373, 1292, 1290, 1302, 1371, 1283, 1271, 1294, 1374, 1368, 1369 ]; type: functional, cell-based; conditions: Homo sapiens
# [19] = biological target: T4, Luciferin 4-monooxygenase; assay: In vitro luciferase assay using purified luciferase. [Related pubchem assays: 1299, 1270, 1295, 1375, 1287, 1281, 1293, 1291, 1289, 1280, 465, 1364, 1282, 1372, 1365, 1370, 1367, 1366, 1266, 1373, 1292, 1290, 1302, 1371, 1283, 1271, 1294, 1374, 1368, 1369 ]
# cells = type: functional, cell-based
# [20] = alpha-synuclein stem-loop luciferase translation blockers – H4 neuroglioma cells, luminescence, confirmation (AID 1988); type: functional, cell-based
# [21] = Luminescence-based counterscreen assay for KLF5 inhibitors: dose response cell-based high throughput screening assay to identify cytotoxic compounds using the IEC-6 intestinal epithelial cell line. [Related pubchem assays: 1700 (Primary screen.), 1834 (Confirmation screen.), 1858 (Summary AID.), 1905 (Counterscreen.)]; type: functional
# HT-1080 = assay: HT1080 cell viability loss – fluorescence readout (AID 620); type: functional, cell-based; conditions: Homo sapiens
# HEK293 [22] = assay: Cytotoxicity assay in HEK293 cells. [Related pubchem assays (depositor defined):AID1266, AID1269, AID1270, AID1271, AID1280, AID1281, AID1282, AID1283, AID1287, AID1289, AID1290, AID1291, AID1292, AID1293, AID1294, AID1295, AID1299, AID1302, AID1364, AID1365, AID1366, AID1367, AID1369, AID1370, AID1371, AID1372, AID1373, AID1374, AID1375, AID1384 …; type: functional, cell-based; conditions: Homo sapiens
# [23] = alpha-synuclein stem-loop translation blockers – luminescence, H4 neuroglioblastoma cells, dose confirmation, confirmation (AID 2454); type: functional, cell-based;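 also: H4 neuroglioblastoma cells carrying an alpha-synuclein 5'UTR luciferase reporter; potency for inhibition of the luciferase signal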
# HEK293 [24] = assay: TNF Induced NF-kB Luciferase in 293-NF-kB-Luc Stable Cells. [Related pubchem assays: 1266, 1299, 1269, 1373, 1292, 1290, 1302, 1371, 1283, 1270, 1295, 1271, 1375, 1294, 1374, 1281, 1293, 1291, 1289, 1280, 465, 1368, 1364, 1282, 1372, 1365, 1369, 1370, 1367, 1366 ]; type: functional, cell-based; conditions: Homo sapiens
# [25] = HEK-293T cell viability reduction – luminescence, B-cell screen hits, cytotoxicity control for BCR NF-kB inhibitor project, dose response (AID 489021); type: functional, cell-based;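 also: HEK-293T cells carrying an NF-kB luciferase reporter; cells exposed to compound for about 14 hours before viability readout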
# HEK293 [26] = assay: HEK293T cell viability loss, resazurin readout – resazurin fluorescence, cytotoxicity control for NF-kB activator project, SAR follow-up (AID 493251); type: functional, cell-based; conditions: Homo sapiens
# Jurkat = assay: SAR Analysis of small molecule inhibitors of T-cell specific antigen receptor-induced NF-kB activation in a Jurkat cell line using a luminescence assay - Set 2. [Related pubchem assays (depositor defined):AID435003, AID435012, AID465]; type: functional, cell-based; conditions: Homo sapiens
# HEK293 [27] = assay: SAR Analysis of small molecule inhibitors of T-cell specific antigen receptor-induced NF-kB activation in a HEK-293T cell line using a luminescence assay - Set 2. [Related pubchem assays (depositor defined):AID435003, AID435012, AID489026]; type: functional, cell-based; conditions: Homo sapiens
# [28] = blockers of HIV-1 envelope-mediated cell-cell fusion – cherry-pick, dose response (AID 652057); type: functional, cell-based
# [29] = blockers of HIV-1 ZM109 envelope-driven cell-cell fusion – HeLa effector, CEM target cells, luciferase, cherry-pick, dose response (AID 652058); type: functional, cell-based;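 also: luciferase signal from HIV-1 Env mediated cell-cell fusion of effector and target cells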
# [30] = off-target signal loss in HeLa-CEM21 co-culture – HeLa F-luc CTL cells, cherry-picked, counter-screen for HIV-1 Env fusion inhibitor project, dose response (AID 652040); type: functional, cell-based;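 also: potency for signal decrease marking cytotoxic or nonspecific inhibition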
# [31] = HIV-1 AD8 envelope cell-cell fusion blockers – cherry-pick, dose response (AID 652062); type: functional, cell-based;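 also: luciferase signal from cell-cell fusion driven by HIV-1 clade B AD8 Env; potency is for inhibitors of fusion seen as a drop in luminescence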
# [32] = biological target: T2, Voltage-gated inwardly rectifying potassium channel KCNH2
# T2 sequence (Q12809 whole entry): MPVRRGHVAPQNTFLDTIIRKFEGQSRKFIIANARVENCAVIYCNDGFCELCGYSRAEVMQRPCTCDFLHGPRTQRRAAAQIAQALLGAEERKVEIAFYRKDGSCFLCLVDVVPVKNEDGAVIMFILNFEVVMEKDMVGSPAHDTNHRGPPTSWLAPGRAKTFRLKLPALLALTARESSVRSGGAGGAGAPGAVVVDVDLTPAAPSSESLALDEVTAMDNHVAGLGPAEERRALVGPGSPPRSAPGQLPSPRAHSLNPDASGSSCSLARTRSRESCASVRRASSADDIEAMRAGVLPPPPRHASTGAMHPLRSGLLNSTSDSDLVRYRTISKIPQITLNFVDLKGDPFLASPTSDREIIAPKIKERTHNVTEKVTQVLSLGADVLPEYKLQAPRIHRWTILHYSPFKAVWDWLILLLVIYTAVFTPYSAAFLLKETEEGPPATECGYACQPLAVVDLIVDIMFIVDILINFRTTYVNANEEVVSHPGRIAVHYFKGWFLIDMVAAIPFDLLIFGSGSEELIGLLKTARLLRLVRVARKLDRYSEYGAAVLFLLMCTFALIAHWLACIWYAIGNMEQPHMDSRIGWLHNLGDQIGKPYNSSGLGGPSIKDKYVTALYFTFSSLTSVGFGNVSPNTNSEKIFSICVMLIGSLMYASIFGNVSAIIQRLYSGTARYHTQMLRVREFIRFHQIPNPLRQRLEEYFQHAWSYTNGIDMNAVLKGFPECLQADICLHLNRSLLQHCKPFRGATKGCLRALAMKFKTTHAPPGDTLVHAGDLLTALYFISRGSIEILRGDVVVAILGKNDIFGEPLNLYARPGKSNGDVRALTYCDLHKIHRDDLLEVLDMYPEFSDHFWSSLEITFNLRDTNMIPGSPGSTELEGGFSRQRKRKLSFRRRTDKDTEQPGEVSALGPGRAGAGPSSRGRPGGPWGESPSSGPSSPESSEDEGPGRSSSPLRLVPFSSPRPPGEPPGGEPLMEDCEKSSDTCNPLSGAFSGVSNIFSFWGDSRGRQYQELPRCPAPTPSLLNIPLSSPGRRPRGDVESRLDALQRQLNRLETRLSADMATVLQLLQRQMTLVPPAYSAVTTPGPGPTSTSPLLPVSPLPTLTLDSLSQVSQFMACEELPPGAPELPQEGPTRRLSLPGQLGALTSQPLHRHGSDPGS
# T4 sequence (P08659 whole entry): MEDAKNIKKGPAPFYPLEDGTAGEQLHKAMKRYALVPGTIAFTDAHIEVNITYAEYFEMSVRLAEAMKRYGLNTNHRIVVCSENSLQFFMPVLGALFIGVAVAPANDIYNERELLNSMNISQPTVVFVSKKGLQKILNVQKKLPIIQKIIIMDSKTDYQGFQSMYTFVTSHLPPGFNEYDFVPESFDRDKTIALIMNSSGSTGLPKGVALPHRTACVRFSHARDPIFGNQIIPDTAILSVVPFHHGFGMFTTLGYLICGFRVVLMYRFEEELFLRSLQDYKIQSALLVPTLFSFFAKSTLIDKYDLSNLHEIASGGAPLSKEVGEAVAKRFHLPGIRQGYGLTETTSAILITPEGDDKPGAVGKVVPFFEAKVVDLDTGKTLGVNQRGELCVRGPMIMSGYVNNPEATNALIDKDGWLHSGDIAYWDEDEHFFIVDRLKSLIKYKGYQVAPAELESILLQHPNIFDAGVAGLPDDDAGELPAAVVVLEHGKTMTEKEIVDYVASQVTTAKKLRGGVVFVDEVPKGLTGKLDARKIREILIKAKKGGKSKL
# Serine/threonine-protein phosphatase, sequence (B9W6M3 whole entry): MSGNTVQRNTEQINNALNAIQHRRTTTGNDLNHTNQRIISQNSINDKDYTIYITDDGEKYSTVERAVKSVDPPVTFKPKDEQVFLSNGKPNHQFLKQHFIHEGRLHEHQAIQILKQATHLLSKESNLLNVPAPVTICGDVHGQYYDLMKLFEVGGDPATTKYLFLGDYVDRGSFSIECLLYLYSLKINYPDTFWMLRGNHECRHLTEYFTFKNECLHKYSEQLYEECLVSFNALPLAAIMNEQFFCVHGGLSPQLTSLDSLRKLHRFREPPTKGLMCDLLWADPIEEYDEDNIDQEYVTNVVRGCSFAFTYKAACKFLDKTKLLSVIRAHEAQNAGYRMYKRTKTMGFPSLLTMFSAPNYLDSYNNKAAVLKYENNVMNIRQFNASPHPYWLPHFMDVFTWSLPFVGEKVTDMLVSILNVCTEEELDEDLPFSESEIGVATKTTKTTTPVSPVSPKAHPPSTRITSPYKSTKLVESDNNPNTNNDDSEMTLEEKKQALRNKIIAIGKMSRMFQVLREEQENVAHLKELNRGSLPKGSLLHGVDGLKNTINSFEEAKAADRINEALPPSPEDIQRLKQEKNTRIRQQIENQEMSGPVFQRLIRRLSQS
# Acyl-homoserine lactone acylase PvdQ, sequence (Q9I194 24-193 limits assumed): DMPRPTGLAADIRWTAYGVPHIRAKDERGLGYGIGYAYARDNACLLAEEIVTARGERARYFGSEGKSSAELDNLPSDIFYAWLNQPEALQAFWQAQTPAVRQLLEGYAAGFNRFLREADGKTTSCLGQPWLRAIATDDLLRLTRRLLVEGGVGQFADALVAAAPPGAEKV
# Acyl-homoserine lactone acylase PvdQ, sequence (Q9I194 217-762 limits assumed): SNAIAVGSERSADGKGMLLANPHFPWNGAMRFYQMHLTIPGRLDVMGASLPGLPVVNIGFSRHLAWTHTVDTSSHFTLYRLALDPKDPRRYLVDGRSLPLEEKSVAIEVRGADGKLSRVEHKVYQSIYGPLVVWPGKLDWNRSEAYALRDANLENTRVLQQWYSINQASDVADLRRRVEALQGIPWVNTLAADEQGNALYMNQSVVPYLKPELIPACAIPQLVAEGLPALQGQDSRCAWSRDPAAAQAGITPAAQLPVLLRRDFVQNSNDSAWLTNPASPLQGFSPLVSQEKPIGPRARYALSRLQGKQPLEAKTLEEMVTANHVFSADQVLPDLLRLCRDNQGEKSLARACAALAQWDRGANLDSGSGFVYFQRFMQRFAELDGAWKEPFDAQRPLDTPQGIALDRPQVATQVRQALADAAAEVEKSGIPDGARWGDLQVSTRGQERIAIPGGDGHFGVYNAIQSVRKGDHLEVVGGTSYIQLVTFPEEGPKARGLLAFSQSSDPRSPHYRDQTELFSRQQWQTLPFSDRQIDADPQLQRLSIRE
# Hexokinase-1, sequence (P19367 whole entry, the tested form may be a part): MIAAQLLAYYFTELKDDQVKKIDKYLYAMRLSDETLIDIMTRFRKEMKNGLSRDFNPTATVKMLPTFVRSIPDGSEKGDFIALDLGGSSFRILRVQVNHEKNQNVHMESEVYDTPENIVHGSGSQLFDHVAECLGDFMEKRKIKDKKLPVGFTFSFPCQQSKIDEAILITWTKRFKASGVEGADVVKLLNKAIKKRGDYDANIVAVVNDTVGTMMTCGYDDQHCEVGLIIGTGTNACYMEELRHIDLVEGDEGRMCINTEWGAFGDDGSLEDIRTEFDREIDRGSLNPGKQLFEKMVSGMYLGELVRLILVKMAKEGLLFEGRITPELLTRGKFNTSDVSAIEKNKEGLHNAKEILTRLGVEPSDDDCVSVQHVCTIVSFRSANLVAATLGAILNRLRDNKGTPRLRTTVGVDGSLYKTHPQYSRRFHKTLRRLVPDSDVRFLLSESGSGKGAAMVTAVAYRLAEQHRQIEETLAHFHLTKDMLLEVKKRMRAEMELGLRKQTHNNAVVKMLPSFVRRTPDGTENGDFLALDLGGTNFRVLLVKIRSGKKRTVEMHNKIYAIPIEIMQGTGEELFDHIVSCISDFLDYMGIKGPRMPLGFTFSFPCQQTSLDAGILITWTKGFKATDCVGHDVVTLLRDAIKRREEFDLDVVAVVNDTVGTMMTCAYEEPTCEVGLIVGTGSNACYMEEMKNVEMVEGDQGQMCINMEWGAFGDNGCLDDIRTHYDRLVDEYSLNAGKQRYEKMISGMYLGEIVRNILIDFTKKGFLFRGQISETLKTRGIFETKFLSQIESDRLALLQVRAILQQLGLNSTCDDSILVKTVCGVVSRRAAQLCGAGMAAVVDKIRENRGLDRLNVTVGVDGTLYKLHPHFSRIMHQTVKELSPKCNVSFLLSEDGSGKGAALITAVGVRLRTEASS
# Latent membrane protein 1, sequence (P03230 whole entry): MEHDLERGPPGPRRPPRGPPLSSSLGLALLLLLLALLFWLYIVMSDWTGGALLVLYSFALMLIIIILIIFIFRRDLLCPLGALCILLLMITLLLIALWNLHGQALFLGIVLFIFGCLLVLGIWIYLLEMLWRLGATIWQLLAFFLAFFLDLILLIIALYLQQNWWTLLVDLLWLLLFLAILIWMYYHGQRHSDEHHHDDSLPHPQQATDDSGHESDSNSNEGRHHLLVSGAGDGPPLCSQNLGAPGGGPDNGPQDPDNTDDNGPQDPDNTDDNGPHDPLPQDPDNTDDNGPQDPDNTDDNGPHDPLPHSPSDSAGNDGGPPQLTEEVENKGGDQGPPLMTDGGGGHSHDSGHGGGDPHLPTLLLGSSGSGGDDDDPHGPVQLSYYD
# ATP-dependent molecular chaperone HSP82, sequence (C4YTQ8 whole entry): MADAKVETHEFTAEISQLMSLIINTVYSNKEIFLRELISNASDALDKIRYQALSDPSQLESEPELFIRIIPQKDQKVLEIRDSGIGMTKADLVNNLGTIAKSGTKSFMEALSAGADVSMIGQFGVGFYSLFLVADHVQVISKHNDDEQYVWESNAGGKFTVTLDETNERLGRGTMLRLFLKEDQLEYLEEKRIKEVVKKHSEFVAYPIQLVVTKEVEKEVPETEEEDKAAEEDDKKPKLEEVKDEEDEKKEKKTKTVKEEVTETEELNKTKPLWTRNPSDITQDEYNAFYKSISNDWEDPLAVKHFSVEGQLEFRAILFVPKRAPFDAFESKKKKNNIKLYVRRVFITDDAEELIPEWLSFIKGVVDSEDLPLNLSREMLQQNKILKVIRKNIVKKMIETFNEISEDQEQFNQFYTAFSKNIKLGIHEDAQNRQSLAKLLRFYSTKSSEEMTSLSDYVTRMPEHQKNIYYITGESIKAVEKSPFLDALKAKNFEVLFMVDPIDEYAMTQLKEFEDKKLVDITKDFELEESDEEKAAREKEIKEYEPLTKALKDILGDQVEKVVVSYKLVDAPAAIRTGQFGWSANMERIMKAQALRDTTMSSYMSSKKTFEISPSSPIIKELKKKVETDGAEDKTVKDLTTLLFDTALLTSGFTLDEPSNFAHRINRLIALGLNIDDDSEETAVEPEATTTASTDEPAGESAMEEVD
smiles,measurement,setting,value
O=c1c2ccccc2nc(/C=C/c2cccnc2)n1Cc1ccc(Cl)cc1,IC50,Hexokinase-1,> 80 µM (inactive)
same,IC50,Hexokinase HKDC1,> 80 µM (inactive)
COc1cc2c(cc1NC(=O)c1ccco1)CCCC2,EC50,[1],> 150 µM (inactive)
same,EC50,[2],0.841 µM (active)
same,EC50,[3],> 180 µM (inactive)
same,EC50,[4],> 150 µM (inactive)
COc1ccc(C(=O)N2CCN(c3ccccn3)CC2)cc1,AC50,Candida albicans [5],15.4 µM (active)
same,AC50,Candida albicans [6],0.484 µM (active)
CN(Cc1ccccc1)c1ncnc2ccc(Br)cc12,AC50,[7],4.49 µM (active)
same,AC50,HeLa,115 µM (active)
CCn1c2ccccc2c2cc(/C=N/n3cnnc3)ccc21,CC50,[8],18.2 µM (active)
same,AC50,HEK293 [9],11.5 µM (active)
same,AC50,[10],4.05 µM (active)
CC(C)COC(=O)COc1cc(Cl)c(Cl)cc1Cl,AC50,[11],39.8 µM (inconclusive)
CCOC(=O)Cn1cc([N+](=O)[O-])nc1[N+](=O)[O-],AC50,[12],29.5 µM (active)
same,AC50,A-375 [13],> 11 µM (active)
same,AC50,A-375 [14],> 11 µM (active)
CC(C)(C)c1ccc(-c2noc(CCC(N)=O)n2)cc1,EC50,[15],< 0.1 µM (active)
same,EC50,[16],0.47 µM (active)
same,EC50,[17],16.5 µM (active)
same,EC50,HEK293 [18],0.443 µM (active)
same,EC50,[19],> 8 µM (not active)
same,EC50,cells,0.517 µM (active)
same,EC50,[20],< 0.1 µM (active)
same,IC50,[21],> 39.8 µM (not active)
same,EC50,HT-1080,> 50 µM (not active)
same,EC50,HEK293 [22],14.9 µM (inactive)
same,EC50,[23],0.203 µM (active)
same,EC50,HEK293 [24],0.528 µM (active)
same,IC50,[25],> 80 µM (inactive)
same,AC50,HEK293 [9],0.401 µM (active)
same,IC50,HEK293 [26],> 80 µM (inactive)
same,IC50,Jurkat,0.26 µM (active)
same,IC50,HEK293 [27],0.48 µM (active)
same,AC50,[28],0.344 µM (active)
same,AC50,[29],< 0.26 µM (active)
same,AC50,[30],< 0.26 µM (active)
same,AC50,[31],< 0.26 µM (active)
Cl.c1ccc2c(c1)[IH]c1ccccc1-2,Potency,[32],35.4813 µM
